Source: US9615577B2, “Herbicidally active cyclic dione compounds, or derivatives therefor, substituted by a phenyl which has an alkynyl-containing substituent” (Syngenta Limited, priority 2012, dated 2017)

How the values were obtained:
Type in all cases: in vivo
[1] = test system: Alopecurus myosuroides (ALOMY); test: Test 1A glasshouse assay for herbicidal activity, post-emergence; details: 312 h, 250 g/ha, evaluated after 13 days, read-out: percentage phytotoxicity ALOMY
Summary of the method: (§1)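 Seeds sown in standard soil were sprayed 1 day after sowing (pre-emergence) or after 8 days' growth (post-emergence) with the active ingredient in acetone/water (50:50) containing 0.5% Tween 20. Plants were kept in a glasshouse at 24/16 °C day/night, 14 h light, 65% humidity; phytotoxicity was scored visually after 13 days (0–100%).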

[2] = test system: Amaranthus retroflexus (AMARE); test: as above; details: 312 h, 250 g/ha, evaluated after 13 days, read-out: percentage phytotoxicity AMARE
Summary of the method: as §1

[3] = test system: Ipomoea hederacea (IPOHE); test: as above; details: 312 h, 250 g/ha, evaluated after 13 days, read-out: percentage phytotoxicity IPOHE
Summary of the method: as §1

Solanum nigrum (SOLNI) [4] = test: as above; details: 312 h, 250 g/ha, evaluated after 13 days, read-out: percentage phytotoxicity SOLNI
Summary of the method: as §1

[5] = test system: Echinochloa crus-galli (ECHCG); test: as above; details: 312 h, 250 g/ha, evaluated after 13 days, read-out: percentage phytotoxicity ECHCG
Summary of the method: as §1

Setaria faberi (SETFA) [6] = test: as above; details: 312 h, 250 g/ha, evaluated after 13 days, read-out: percentage phytotoxicity SETFA
Summary of the method: as §1

[7] = test system: Alopecurus myosuroides (ALOMY); test: Test 1A glasshouse assay for herbicidal activity, pre-emergence; details: 312 h, 250 g/ha, evaluated after 13 days, read-out: percentage phytotoxicity ALOMY
Summary of the method: as §1

[8] = test system: Amaranthus retroflexus (AMARE); test: as above; details: 312 h, 250 g/ha, evaluated after 13 days, read-out: percentage phytotoxicity AMARE
Summary of the method: as §1

[9] = test system: Ipomoea hederacea (IPOHE); test: as above; details: 312 h, evaluated after 13 days, read-out: percentage phytotoxicity IPOHE
Summary of the method: as §1

Solanum nigrum (SOLNI) [10] = test: as above; details: 312 h, evaluated after 13 days, read-out: percentage phytotoxicity SOLNI
Summary of the method: as §1

[11] = test system: Echinochloa crus-galli (ECHCG); test: as above; details: 312 h, 250 g/ha, evaluated after 13 days, read-out: percentage phytotoxicity ECHCG
Summary of the method: as §1

Setaria faberi (SETFA) [12] = test: as above; details: 312 h, 250 g/ha, evaluated after 13 days, read-out: percentage phytotoxicity SETFA
Summary of the method: as §1

[13] = test system: Alopecurus myosuroides (ALOMY); test: Biological Example 2 comparative herbicidal data, post-emergence glasshouse screen; details: 312 h, read-out: Post-emergence herbicidal activities (percentage phytotoxicity) ALOMY
Summary of the method: (§2)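 Plants grown 8 days in a glasshouse (24/16°C day/night, 14 h light, 65% humidity) were sprayed with compound in acetone/water (50:50) containing 0.5% Tween 20. They were kept under the same conditions and watered twice daily. Phytotoxicity was scored visually after 13 days (0 = no damage, 100 = total damage).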

[14] = test system: Echinochloa crus-galli (ECHCG); test: as above; details: 312 h, read-out: Post-emergence herbicidal activities (percentage phytotoxicity) ECHCG
Summary of the method: as §2

Setaria faberi (SETFA) [15] = test: as above; details: 312 h, read-out: Post-emergence herbicidal activities (percentage phytotoxicity) SETFA
Summary of the method: as §2

[16] = test system: Digitaria sanguinalis (DIGSA); test: Biological Example 3 glasshouse assay for herbicidal activity, using various adjuvant systems, post-emergence; details: 8 g/ha, 14 DAA, 0.5% v/v Adigor + 1.0% v/v AMS + 12.5% v/v IPA
Method: (§3) Post-emergence foliar spray application, 200 L/ha, usually one or two replicates for the weeds (depending on application rate), and two replicates for soybean.
(§4) Standard warm conditions (tropical), in glasshouse. Specifically, the glasshouse bay conditions are 24° C./18° C. day/night; 16/8 hours light/dark; 65% humidity.
(§5) The herbicidal application takes place at the following growth stages for plants which include inter alia one or more of the following plants (usually the herbicidal application takes place on at least the following six plants: DIGSA, ELEIN, SETFA, GLXMA Nikko, and GLXMA TMG133, and either BRADC or BRAPP):
Digitaria sanguinalis (DIGSA)—growth stage 12 or 13
(§6) Each test Compound is applied with one of the following adjuvant systems (all percentages are final concentrations in the aqueous spray mixture):
(§7) Adjuvant system 1: 0.5% v/v Adigor™ *, 1.0% v/v AMS (ammonium sulphate) and 12.5% v/v IPA (isopropyl alcohol).
(§8) Adjuvant system 2: 0.5% v/v Adigor™ * and 12.5% v/v IPA (isopropyl alcohol).
(§9) Adjuvant system 3: 0.5% v/v Hexamoll™ DINCH **, 1.0% v/v AMS (ammonium sulphate) and 12.5% v/v IPA (isopropyl alcohol).
Seeds of the weed plants, typically including inter alia [either Brachiaria decumbens (BRADC) or Brachiaria platyphylla (BRAPP)], Digitaria sanguinalis (DIGSA), Eleusine indica (ELEIN), Setaria faberi (SETFA) are sown in seed trays (troughs) containing clay loam soil (pH 7.0, 2.2% organic matter, “Trough Mix A”); and soybean seed is sown in pots containing the same soil with 3 soybean seedlings per pot. The plants are sprayed with the test herbicide when they reach the growth stages mentioned above. […]
(§10) A visual assessment of the % herbicidal damage is made 7 and 14 Days After herbicide Application (DAA) (or, in a minority of cases, 7 and 15 DAA), and the results are recorded as % visual herbicidal damage where 0%=no damage to plants and 100%=plant totally killed. […]

Setaria faberi (SETFA) [17] = test: as above; details: 8 g/ha, 14 DAA, 0.5% v/v Adigor + 1.0% v/v AMS + 12.5% v/v IPA
Method: as §3, §4, §5
Setaria faberi (SETFA)—growth stage 12 or 13
as §6, §7, §8, §9
Seeds of the weed plants, typically including inter alia [either Brachiaria decumbens (BRADC) or Brachiaria platyphylla (BRAPP)], Digitaria sanguinalis (DIGSA), Eleusine indica (ELEIN), Setaria faberi (SETFA) are sown in seed trays (troughs) containing clay loam soil (pH 7.0, 2.2% organic matter, “Trough Mix A”); and soybean seed is sown in pots containing the same soil with 3 soybean seedlings per pot. The plants are sprayed with the test herbicide when they reach the growth stages mentioned above.
The test herbicidal solutions are prepared by mixing the appropriate aliquots of the test substance(s) and the adjuvant system indicated above *** in deionised water to give the desired treatment concentration. […]
as §10

[18] = test system: Echinochloa crus-galli (ECHCG); test: as above; details: 8 g/ha, 14 DAA, adjuvant system per compound
Method: as §3, §4, §5
Echinochloa crus-galli (ECHCG)—growth stage 12 or 13
as §6, §7, §8
Adjuvant system 3: 0.5% v/v Hexamoll™ DINCH **, 1.0% v/v AMS (ammonium sulphate) and 12.5% v/v IPA (isopropyl alcohol). […]
as §10

[19] = test system: Brachiaria decumbens (BRADC); test: as above; details: 8 g/ha, 14 DAA, adjuvant system per compound
Method: as §3, §4, §5
Brachiaria decumbens (BRADC)— growth stage (GS) 12 or 13 (or GS 12)—or, if BRADC is not used, then Brachiaria platyphylla (BRAPP)—growth stage 12 or 13
as §6, §7
Adjuvant system 2: 0.5% v/v Adigor™ * and 12.5% v/v IPA (isopropyl alcohol). […]
as §10

| Compound | pest or weed control at 250 g/ha [1] [%] | pest or weed control at 250 g/ha [2] [%] | pest or weed control at 250 g/ha [3] [%] | pest or weed control at 250 g/ha (Solanum nigrum (SOLNI) [4]) [%] | pest or weed control at 250 g/ha [5] [%] | pest or weed control at 250 g/ha (Setaria faberi (SETFA) [6]) [%] | pest or weed control at 250 g/ha [7] [%] | pest or weed control at 250 g/ha [8] [%] | pest or weed control at 250 g/ha [9] [%] | pest or weed control at 250 g/ha (Solanum nigrum (SOLNI) [10]) [%] | pest or weed control at 250 g/ha [11] [%] | pest or weed control at 250 g/ha (Setaria faberi (SETFA) [12]) [%] | other results |
| --- | --- | --- | --- | --- | --- | --- | --- | --- | --- | --- | --- | --- | --- |
| CC#Cc1cc(Cl)c(C2C(=O)C3CCC(C3)C2=O)c(CC)c1 (stereo not shown) [Compound A-4] | 90 | 0 | 0 | 0 | 100 | 80 | 100 | 0 | 0 | 0 | 100 | 70 | – |
| Cc1cc(C#CCl)ccc1C1C(=O)C(C)(C)OC(C)(C)C1=O [Compound A-7] | 80 | 0 | 20 | 50 | 80 | 80 | 80 | 60 | 20 | 40 | 80 | 30 | pest or weed control at 15.625 g/ha ([13]; 15.625 g/ha application rate): 30%; pest or weed control at 62.5 g/ha ([13]; 62.5 g/ha application rate): 50%; pest or weed control at 15.625 g/ha ([14]; 15.625 g/ha application rate): 0%; pest or weed control at 62.5 g/ha ([14]; 62.5 g/ha application rate): 60%; pest or weed control at 15.625 g/ha (Setaria faberi (SETFA) [15]; 15.625 g/ha application rate): 40%; pest or weed control at 62.5 g/ha (Setaria faberi (SETFA) [15]; 62.5 g/ha application rate): 60% |
| COc1cc(C#CCl)cc(Cl)c1C1C(=O)C2CCC(C2)C1=O (stereo not shown) [Compound A-25, 3-[2-Chloro-4-(2-chloroethynyl)-6-methoxy-phenyl]bicyclo[3.2.1]octane-2,4-dione] | – | – | – | – | – | – | – | – | – | – | – | – | percentage control of Digitaria sanguinalis (DIGSA) [16]: 60%; percentage control of Setaria faberi (SETFA) (Setaria faberi (SETFA) [17]): 40%; percentage control of Echinochloa crus-galli (ECHCG) [18]: 45%; percentage control of Brachiaria decumbens (BRADC) [19]: 15% |
